# From patent US20260232682A1, “GSPT1 DEGRADER COMPOUNDS” (Captor Therapeutics S.A., priority 2023, published 2026)
# Legend:
# [1] = target: CRBN/DDB1 protein complex (Homo sapiens, UniProt Q96SW2); test: CRBN displacement TR-FRET assay; conditions: Thalidomide-Red tracer, 6×His-CRBN/DDB1; read-out: CRBN binding Ki
# Method in brief: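 Test compound at various concentrations competed with 6.8 nM Thalidomide-Red tracer for 5 nM 6×His-CRBN/DDB1, detected with 0.5 nM anti-His-Eu cryptate in buffer with 1 mM DTT and 1% DMSO. Incubation ran 180 min at room temperature with a time-resolved fluorescence read-out. IC50 values were converted to Ki by Cheng–Prusoff using tracer Kd and protein and tracer concentrations.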
# [2] = target: T1, GSPT1-HiBiT protein in GSPT1-HiBiT HEK293 cells (Homo sapiens, UniProt P15170+Q96SW2); test: GSPT1 degradation assay using HiBiT system (Nano-Glo HiBiT lytic assay); assay type: cell-based; conditions: 6 hours treatment; for DC50: read-out: HiBiT lytic assay Geomean absolute DC50
# T1 construct: endogenous in cells; host or cells: HEK293 (CRISPR/Cas9 knock-in of HiBiT at the GSPT1 locus)
# Method in brief: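 CRISPR-engineered HEK293 cells expressing endogenous C-terminally HiBiT-tagged GSPT1, seeded at 2×10^3/well overnight, then treated 6 h at 37 °C with 12-point titrations (10 μM to 0.03 nM, 0.25% DMSO). Remaining GSPT1 measured by Nano-Glo HiBiT lytic luminescence. DC50 and Dmax from non-linear regression of DMSO-normalized RLU.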
# [3] = target: T2, [IKZF1 ZF2]-[compound]-[CRBN/DDB1] ternary complex (Homo sapiens, UniProt Q13422+Q96SW2); test: AlphaLISA assay for off-target recruitment detection, IKZF1 ZF2; assay type: binding; conditions: 1 μM compound; normalized to Lenalidomide; read-out: Normalized ternary complex response, IKZF1 ZF2
# T2 construct: IKZF1 ZF2
# Method in brief: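 Neo-substrate with 40 μg/ml donor beads and 200 nM 6×His-CRBN/DDB1 with 40 μg/ml anti-His acceptor beads were each prepared in PBS pH 7.4 with Tween-20 and 1 mM DTT, preincubated 30 min at RT, then mixed. Compounds at 2% DMSO were incubated 30 min at 25 °C, read at 680/615 nm, and normalised between DMSO background and reference glue maximum.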
# T1 sequence (P15170 whole entry): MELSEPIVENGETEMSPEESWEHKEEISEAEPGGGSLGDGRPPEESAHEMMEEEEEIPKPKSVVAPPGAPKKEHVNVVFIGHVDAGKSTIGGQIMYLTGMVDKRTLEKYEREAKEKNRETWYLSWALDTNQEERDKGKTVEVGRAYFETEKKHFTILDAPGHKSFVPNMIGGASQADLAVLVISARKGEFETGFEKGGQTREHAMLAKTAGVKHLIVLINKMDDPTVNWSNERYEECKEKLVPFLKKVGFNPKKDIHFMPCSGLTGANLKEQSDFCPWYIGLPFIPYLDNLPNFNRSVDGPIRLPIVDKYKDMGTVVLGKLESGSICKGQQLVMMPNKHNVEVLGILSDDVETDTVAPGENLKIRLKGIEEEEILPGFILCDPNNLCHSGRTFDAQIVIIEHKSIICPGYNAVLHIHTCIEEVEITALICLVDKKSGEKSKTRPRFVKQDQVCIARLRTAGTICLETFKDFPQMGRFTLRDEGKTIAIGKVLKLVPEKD
# T1 sequence (Q96SW2 whole entry): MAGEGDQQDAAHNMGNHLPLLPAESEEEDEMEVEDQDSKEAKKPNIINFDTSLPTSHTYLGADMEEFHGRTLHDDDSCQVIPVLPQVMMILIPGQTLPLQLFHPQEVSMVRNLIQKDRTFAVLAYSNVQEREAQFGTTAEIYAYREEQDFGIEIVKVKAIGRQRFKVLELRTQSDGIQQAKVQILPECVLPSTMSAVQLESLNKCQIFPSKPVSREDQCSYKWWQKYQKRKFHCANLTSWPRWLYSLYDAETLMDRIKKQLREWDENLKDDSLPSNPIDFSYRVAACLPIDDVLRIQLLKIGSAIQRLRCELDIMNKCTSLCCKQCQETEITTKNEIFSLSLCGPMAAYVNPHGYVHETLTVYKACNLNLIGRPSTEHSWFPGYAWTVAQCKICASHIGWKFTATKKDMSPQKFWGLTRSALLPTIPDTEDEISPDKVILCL
# T1 sequence (Q16531 whole entry partner): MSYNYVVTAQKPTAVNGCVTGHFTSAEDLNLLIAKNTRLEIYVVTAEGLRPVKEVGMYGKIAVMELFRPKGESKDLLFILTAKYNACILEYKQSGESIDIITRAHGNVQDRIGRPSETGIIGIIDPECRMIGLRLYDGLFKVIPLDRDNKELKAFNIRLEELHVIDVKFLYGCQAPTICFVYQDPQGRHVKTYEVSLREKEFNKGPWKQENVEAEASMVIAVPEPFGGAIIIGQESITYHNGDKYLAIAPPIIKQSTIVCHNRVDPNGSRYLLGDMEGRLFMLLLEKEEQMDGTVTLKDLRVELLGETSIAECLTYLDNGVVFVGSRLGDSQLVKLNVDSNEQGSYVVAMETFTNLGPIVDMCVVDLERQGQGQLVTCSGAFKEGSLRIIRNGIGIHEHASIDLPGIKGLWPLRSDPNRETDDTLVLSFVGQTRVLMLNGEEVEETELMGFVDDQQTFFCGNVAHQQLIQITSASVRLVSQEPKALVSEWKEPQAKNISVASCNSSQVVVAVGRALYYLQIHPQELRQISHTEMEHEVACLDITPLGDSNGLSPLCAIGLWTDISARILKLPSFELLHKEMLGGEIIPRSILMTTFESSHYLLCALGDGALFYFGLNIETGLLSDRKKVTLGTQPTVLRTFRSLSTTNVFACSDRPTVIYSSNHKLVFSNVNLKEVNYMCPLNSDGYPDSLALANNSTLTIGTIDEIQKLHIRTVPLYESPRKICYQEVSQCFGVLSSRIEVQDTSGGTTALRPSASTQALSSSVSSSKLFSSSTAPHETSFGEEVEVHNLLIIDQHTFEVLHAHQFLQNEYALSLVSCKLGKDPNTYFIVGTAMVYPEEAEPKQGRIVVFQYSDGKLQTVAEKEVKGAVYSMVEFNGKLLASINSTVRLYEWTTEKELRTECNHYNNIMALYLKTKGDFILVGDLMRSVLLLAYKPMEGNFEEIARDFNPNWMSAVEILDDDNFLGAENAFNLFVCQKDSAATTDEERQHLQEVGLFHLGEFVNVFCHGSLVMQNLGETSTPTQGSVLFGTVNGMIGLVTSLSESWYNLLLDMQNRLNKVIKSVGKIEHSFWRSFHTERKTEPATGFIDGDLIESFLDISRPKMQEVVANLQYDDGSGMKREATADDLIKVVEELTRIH
# CRBN/DDB1 protein complex, sequence (Q96SW2 whole entry, species assumed): as the sequence (Q96SW2 whole entry) above
# CRBN/DDB1 protein complex, sequence (Q16531 whole entry partner, species assumed): as the sequence (Q16531 whole entry partner) above
# T2 sequence (Q13422 145-167 limits assumed): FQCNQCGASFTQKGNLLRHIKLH
# T2 sequence (Q96SW2 whole entry): as the sequence (Q96SW2 whole entry) above
# T2 sequence (Q16531 whole entry partner): as the sequence (Q16531 whole entry partner) above
Ki [1],Dmax [2],DC50 [2],activation at 1 µM [3],Compound
500 to 1000 nM,≥ 75%,10 to 50 nM,< 10%,"Cc1nc2cc(COC(=O)Nc3nc(C(C)(C)C)no3)ccc2cc1C1CCC(=O)NC1=O (stereo not drawn) [Compound 80, (3-(2,6-dioxopiperidin-3-yl)-2-methylquinolin-7-yl)methyl (3-(tert-butyl)-1,2,4-oxadiazol-5-yl)carbamate]"
< 500 nM,≥ 75%,< 10 nM,< 10%,"Cc1nc2cc(COC(=O)Nc3cc(C4(C(F)(F)F)CC4)no3)ccc2cc1C1CCC(=O)NC1=O (stereo not drawn) [Compound 81, (3-(2,6-dioxopiperidin-3-yl)-2-methylquinolin-7-yl)methyl (3-(1-(trifluoromethyl)cyclopropyl)isoxazol-5-yl)carbamate]"
< 500 nM,≥ 75%,< 10 nM,< 10%,"[2H]C([2H])(OC(=O)Nc1cc(C(C)(C)C)no1)c1ccc2cc(C3CCC(=O)NC3=O)c(C)nc2c1 (stereo not drawn) [Compound 82, (3-(2,6-dioxopiperidin-3-yl)-2-methylquinolin-7-yl)methyl-d2 (3-(tert-butyl)isoxazol-5-yl)carbamate]"
